# According to US7981912B2, “Indole acetic acids exhibiting CRTH2 receptor antagonism and uses thereof” (Wyeth LLC, priority 2004, dated 2011):
# Biological target: T1, human CRTH2 (Homo sapiens, UniProt Q9Y5Y4)
# T1 sequence (Q9Y5Y4 1-395): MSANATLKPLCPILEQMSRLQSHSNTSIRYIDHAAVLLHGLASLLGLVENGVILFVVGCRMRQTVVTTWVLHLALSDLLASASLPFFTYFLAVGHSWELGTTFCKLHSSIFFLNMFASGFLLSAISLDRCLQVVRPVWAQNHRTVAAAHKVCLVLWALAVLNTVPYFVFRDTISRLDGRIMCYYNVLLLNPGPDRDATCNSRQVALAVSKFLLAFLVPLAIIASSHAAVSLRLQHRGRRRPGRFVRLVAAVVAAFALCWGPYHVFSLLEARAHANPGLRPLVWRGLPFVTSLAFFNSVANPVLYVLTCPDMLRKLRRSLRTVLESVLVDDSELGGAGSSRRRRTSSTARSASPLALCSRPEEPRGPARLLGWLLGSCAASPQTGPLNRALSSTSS
# Assay: CRTH-2 binding assay (scintillation proximity assay, inhibition of 3H-PGD2 binding)
# Design: expressed in transfected cells; host or cells: HEK 293EBNA-hCRTH2 (membrane preparation)
# Details: inhibition of 3H-PGD2 (3.6 nM) binding to HEK 293EBNA-hCRTH2 membranes; Ki calculated from IC50
# Procedure: A CRTH2 binding assay was developed to measure the ability of compounds to inhibit the binding of PGD2 to human CRTH2 using a scintillation proximity assay.
# Membranes containing hCRTH2 receptors were prepared from HEK 293EBNA-hCRTH2 cells (a HEK 293EBNA cell line stably expressing human CRTH2). The cells were grown to confluency, harvested and washed with PBS. The cells were resuspended in 10 mM Hepes pH 7.4, 1 mM EDTA and protease inhibitors and incubated for 30 min on ice. The cells were homogenized and centrifuged for 10 min at 1000×g. The supernate was centrifuged for 30 min at 100,000×g and the membrane pellet was then resusupended in 10 mM Hepes pH 7.4 and 1 mM EDTA. The protein concentration of the membrane preparation was determined by Bradford assay (Bio-Rad).
# The ability of compounds to inhibit the interaction of PGD2 to human CRTH2 was determined at seven compound concentrations. Compounds were serially diluted in DMSO then diluted into CRTH2 buffer without glycerol (10 mM Hepes pH 7.4, 1 mM EDTA, 10 mM MnCl2) to six times the final desired concentration. 20 μL of the diluted compounds were transferred into non-surface binding 96 well plates (Corning). Each concentration was done in triplicate. In addition to test compounds, each plate contained 12 control wells. Six of these wells contained 20 μL of CRTH2 buffer without glycerol. These wells were used to measure total binding. Six wells contained 20 μL of CRTH2 buffer without glycerol plus 1.5 mM indomethacin. These wells were used to measure non-specific binding. Next, HEK 293EBNA-hCRTH2 membranes were resuspended in CRTH2 buffer with glycerol (10 mM Hepes pH 7.4, 1 mM EDTA, 10 mM MnCl2, 25% glycerol) so that the final concentration was approximately 20 μg protein/100 μL. Polylysine coated yttrium silicate SPA beads (Amershamn) were added to the membrane mix to a concentration of 0.4 mg/100 μL and finally ^3H-PGD2 was added to the membrane/SPA bead mix to 3.6 nM. 100 μL of the membrane/SPA bead/^3H-PGD2 mix was added to each well of the non-surface binding plates containing the diluted compound plus controls. The plates were incubated for 2 hours at room temperature with shaking and then the plates were counted on a Microbeta scintillation counter (Perkin Elmer) for 1 min per well.
# IC50 values were determined from the experimental results by nonlinear regression using Prism 4.0 software. The IC50 values were then used in conjunction with the […] for hCRTH2 and the ^3H-PGD2 concentration used in the experiment to calculate the Ki for each compound.
row,Compound,Ki [nM]
1,"CCCCN1N=C(c2c(C)n(CC(=O)O)c3ccccc23)[C@H]2CC=CC[C@H]2C1=O (stereo in doubt) [Example 70, [3-(3-Butyl-4-oxo-3,4,4a,5,8,8a-hexahydro-phthalazin-1-yl)-2-methyl-indol-1-yl]-acetic acid]",< 1000
2,"Cc1c(C2=NN(CCc3ccccc3)C(=O)[C@@H]3CC=CC[C@H]23)c2ccccc2n1CC(=O)O (stereo in doubt) [Example 72, [2-Methyl-3-(4-oxo-3-phenethyl-3,4,4a,5,8,8a-hexahydro-phthalazin-1-yl)-indol-1-yl]-acetic acid]",< 100
3,"O=C(O)Cn1cc(C2NS(=O)(=O)c3ccccc32)c2ccccc21 (centres unmarked) [Example 1, [3-(1,1-Dioxo-2,3-dihydro-1λ^6-benzo[d]isothiazol-3-yl)-indol-1-yl]-acetic acid]",< 10000
4,"Cc1ccc2c(c1)c(C1NS(=O)(=O)c3ccccc31)cn2CC(=O)O (centres unmarked) [Example 2, [3-(1,1-Dioxo-2,3-dihydro-1H-1λ^6-benzo[d]isothiazol-3-yl)-5-methyl-indol-1-yl]-acetic acid]",< 10000
5,"Cc1c(C2NS(=O)(=O)c3ccccc32)c2ccccc2n1CC(=O)O (centres unmarked) [Example 3, [3-(1,1-Dioxo-2,3-dihydro-1H-1λ^6-benzo[d]isothiazol-3-yl)-2-methyl-indol-1-yl]-acetic acid]",< 10000
6,"COc1ccc2c(c1)c(C1NS(=O)(=O)c3ccccc31)cn2CC(=O)O (centres unmarked) [Example 4, [3-(1,1-Dioxo-2,3-dihydro-1H-1λ^6-benzo[d]isothiazol-3-yl)-5-methoxy-indol-1-yl]-acetic acid]",< 10000
7,"O=C(O)Cn1cc(C2NS(=O)(=O)c3ccccc32)c2cc(Cl)ccc21 (centres unmarked) [Example 5, [5-Chloro-3-(1,1-dioxo-2,3-dihydro-1H-1λ^6-benzo[d]isothiazol-3-yl)-indol-1-yl]-acetic acid]",< 10000
8,"Cc1c(C2NS(=O)(=O)c3ccccc32)c2cc(Cl)ccc2n1CC(=O)O (centres unmarked) [Example 6, [5-Chloro-3-(1,1-dioxo-2,3-dihydro-1H-1λ^6-benzo[d]isothiazol-3-yl)-2-methyl-indol-1-yl]-acetic acid]",< 1000
9,"Cc1ccc2c(c1)c(C1NS(=O)(=O)c3ccccc31)c(C)n2CC(=O)O (centres unmarked) [Example 7, [3-(1,1-Dioxo-2,3-dihydro-1H-1λ^6-benzo[d]isothiazol-3-yl)-2,5-dimethyl-indol-1-yl]-acetic acid]",< 10000
10,"O=C(O)Cn1cc(C2NS(=O)(=O)c3ccccc32)c2cc(Br)ccc21 (centres unmarked) [Example 8, [5-Bromo-3-(1,1-dioxo-2,3-dihydro-1H-1λ^6-benzo[d]isothiazol-3-yl)-indol-1-yl]-acetic acid]",< 10000
11,"N#Cc1ccc2c(c1)c(C1NS(=O)(=O)c3ccccc31)cn2CC(=O)O (centres unmarked) [Example 9, [5-Cyano-3-(1,1-dioxo-2,3-dihydro-1H-1λ^6-benzo[d]isothiazol-3-yl)-indol-1-yl]-acetic acid]",< 10000
12,"Cc1c(C2NS(=O)(=O)c3ccccc32)c2cc(F)ccc2n1CC(=O)O (centres unmarked) [Example 10, [3-(1,1-Dioxo-2,3-dihydro-1H-1λ^6-benzo[d]isothiazol-3-yl)-5-fluoro-2-methyl-indol-1-yl]-acetic acid]",< 1000
13,"O=C(O)Cn1cc(C2NS(=O)(=O)c3ccccc32)c2c(Cl)cccc21 (centres unmarked) [Example 11, [4-Chloro-3-(1,1-dioxo-2,3-dihydro-1H-1λ^6-benzo[d]isothiazol-3-yl)-indol-1-yl]-acetic acid]",< 1000
14,"O=C(O)Cn1cc(C2NS(=O)(=O)c3ccccc32)c2ccc(Cl)cc21 (centres unmarked) [Example 12, [6-Chloro-3-(1,1-dioxo-2,3-dihydro-1H-1λ^6-benzo[d]isothiazol-3-yl)-indol-1-yl]-acetic acid]",< 1000
15,"Cc1c(C2NS(=O)(=O)c3cc(F)ccc32)c2ccccc2n1CC(=O)O (centres unmarked) [Example 13, [3-(6-Fluoro-1,1-dioxo-2,3-dihydro-1H-1λ^6-benzo[d]isothiazol-3-yl)-2-methyl-indol-1-yl]-acetic acid]",< 1000
16,"CN1C(c2cn(CC(=O)O)c3ccccc23)c2ccccc2S1(=O)=O (centres unmarked) [Example 14, [3-(2-Methyl-1,1-dioxo-2,3-dihydro-1H-1λ^6-benzo[d]isothiazol-3-yl)-indol-1-yl]-acetic acid]",< 10000
17,"O=C(O)Cn1cc(-c2nn(Cc3ccccc3)c(=O)c3ccccc23)c2ccccc21 [Example 15, [3-(3-Benzyl-4-oxo-3,4-dihydro-phthalazin-1-yl)-indol-1-yl]-acetic acid]",< 1000
18,"O=C(O)Cn1cc(C2=NN(Cc3ccccc3)S(=O)(=O)c3ccccc32)c2ccccc21 [Example 17, [3-(2-Benzyl-1,1-dioxo-1,2-dihydro-1λ6-benzo[e][1,2,3]thiadiazin-4-yl)-indol-1-yl]-acetic acid]",< 1000
19,"CN1N=C(c2cn(CC(=O)O)c3ccccc23)c2ccccc2S1(=O)=O [Example 18, [3-(2-Methyl-1,1-dioxo-1,2-dihydro-1λ6-benzo[e][1,2,3]thiadiazin-4-yl)-indol-1-yl]-acetic acid]",< 10000
20,"Cc1c(C2=NN(CCc3ccccc3)S(=O)(=O)c3ccccc32)c2ccccc2n1CC(=O)O [Example 19, [3-(1,1-Dioxo-2-phenethyl-1,2-dihydro-1λ^6-benzo[e][1,2,3]thiadiazin-4-yl)-2-methyl-indol-1-yl]-acetic acid]",< 100
21,"CN1C(=O)c2ccccc2C1c1cn(CC(=O)O)c2ccccc12 (centres unmarked) [Example 20, [3-(2-Methyl-3-oxo-2,3-dihydro-1H-isoindol-1-yl)-indol-1-yl]-acetic acid]",> 10000
22,"Cc1c(-c2ccc(=O)n(Cc3ccccc3)n2)c2cc(Cl)ccc2n1CC(=O)O [Example 21, [3-(1-Benzyl-6-oxo-1,6-dihydro-pyridazin-3-yl)-5-chloro-2-methyl-indol-1-yl]-acetic acid]",< 100
23,"Cc1noc(C)c1CN1C(=O)c2ccccc2C1c1cn(CC(=O)O)c2ccccc12 (centres unmarked) [Example 22, {3-[2-(3,5-Dimethyl-isoxazol-4-ylmethyl)-3-oxo-2,3-dihydro-1H-isoindol-1-yl]-indol-1-yl}-acetic acid]",< 1000
24,"Cc1c(C2=NN(CCC(C)C)S(=O)(=O)c3ccccc32)c2ccccc2n1CC(=O)O [Example 23, {2-Methyl-3-[2-(3-methyl-butyl)-1,1-dioxo-1,2-dihydro-1λ^6-benzo[e][1,2,3]thiadiazin-4-yl]-indol-1-yl}-acetic acid]",< 100
25,"Cc1c(-c2nn(CCOc3ccc(Cl)cc3)c(=O)c3ccccc23)c2cc(Cl)ccc2n1CC(=O)O [Example 25, (5-Chloro-3-{3-[2-(4-chloro-phenoxy)-ethyl]-4-oxo-3,4-dihydro-phthalazin-1-yl}-2-methyl-indol-1-yl)-acetic acid]",< 100
26,"Cc1c(-c2nn(Cc3nc4ccccc4s3)c(=O)c3ccccc23)c2cc(Cl)ccc2n1CC(=O)O [Example 26, [3-(3-Benzothiazol-2-ylmethyl-4-oxo-3,4-dihydro-phthalazin-1-yl)-5-chloro-2-methyl-indol-1-yl]-acetic acid]",< 100
27,"Cc1c(-c2nn(CC3COc4ccccc4O3)c(=O)c3ccccc23)c2cc(Cl)ccc2n1CC(=O)O (centres unmarked) [Example 27, {5-Chloro-3-[3-(2,3-dihydro-benzo[1,4]dioxin-2-ylmethyl)-4-oxo-3,4-dihydro-phthalazin-1-yl]-2-methyl-indol-1-yl}-acetic acid]",< 100
28,"O=C(O)Cn1cc(C2c3ccccc3S(=O)(=O)N2Cc2ccccc2)c2ccccc21 (centres unmarked) [Example 28, [3-(2-Benzyl-1,1-dioxo-2,3-dihydro-1H-1λ^6-benzo[d]isothiazol-3-yl)-indol-1-yl]-acetic acid]",< 10000
29,"CC(C)CCN1C(c2cn(CC(=O)O)c3ccccc23)c2ccccc2S1(=O)=O (centres unmarked) [Example 29, {3-[2-(3-Methyl-butyl)-1,1-dioxo-2,3-dihydro-1H-1λ^6-benzo[d]isothiazol-3-yl]-indol-1-yl}-acetic acid]",< 10000
